Results taken from ChEMBL document CHEMBL5584209, “Novel amino- and hydroxy-functionalized 1,2,4-trioxanes and their antimalarial activity against multidrug-resistant Plasmodium yoelii nigeriensis in Swiss mice via intramuscular and oral route” (2024).
Active and inactive are the calls of the source. The rule behind the calls is not given here.

Tested on: Plasmodium yoelii nigeriensis
Test: Antimalarial activity against multi-drug resistant Plasmodium yoelii nigeriensis infected in swiss mouse model assessed as suppression of parasitemia at 24 mg/kg, IM administered for 4 days relative to control
Format: functional
Conditions: time 4 day

Compound	Activity [%]
C[C@@H]1CC[C@H]2[C@@H](C)C(=O)O[C@@H]3O[C@@]4(C)CC[C@@H]1[C@]32OO4 [ARTEMISININ]	100

Tested on: Plasmodium yoelii nigeriensis
Test: Antimalarial activity against multi-drug resistant Plasmodium yoelii nigeriensis infected in swiss mouse model assessed as suppression of parasitemia at 96 mg/kg, po administered for 4 days relative to control
Format: functional
Conditions: time 4 day

Compound	Activity [%]
C=C(c1ccc(OC(C)(C)CO)cc1)C1COC2(CCC(Nc3ccc(Br)cc3)CC2)OO1 (stereo not drawn)	100
C=C(c1ccc(OC(C)(C)CO)cc1)C1COC2(OO1)C1CC3CC(C1)CC2C3 (stereo not drawn)	100
C=C(c1ccc(OC(C)(C)CNc2ccc(C)cc2)cc1)C1COC2(CCCCC2)OO1 (stereo not drawn)	100
C=C(c1ccc(OC(C)(C)CNc2ccc(C(F)(F)F)cc2)cc1)C1COC2(CCCC2)OO1 (stereo not drawn)	100
C=C(c1ccc(OC(C)(C)CNc2cc(Cl)cc(Cl)c2)cc1)C1COC2(CCCC2)OO1 (stereo not drawn)	100
C=C(c1ccc(OC(C)(C)CNc2ccc(Br)cc2)cc1)C1COC2(CCCCC2)OO1 (stereo not drawn)	100
C[C@@H]1CC[C@H]2[C@@H](C)C(=O)O[C@@H]3O[C@@]4(C)CC[C@@H]1[C@]32OO4 [ARTEMISININ]	100
C=C(c1ccc(OC(C)(C)CNc2ccccc2)cc1)C1COC2(OO1)C1CC3CC(C1)CC2C3 (stereo not drawn)	100
C=C(c1ccc(OC(C)(C)CO)cc1)C1COC2(CCCCC2)OO1 (stereo not drawn)	68
C=C(c1ccc(OC(C)(C)CNc2ccc(F)cc2)cc1)C1COC2(OO1)C1CC3CC(C1)CC2C3 (stereo not drawn)	100
C=C(c1ccc(OC(C)(C)CO)cc1)C1COC2(CCCC2)OO1 (stereo not drawn)	53
C=C(c1ccc(OC(C)(C)CO)cc1)C1COC2(CCC(=O)CC2)OO1 (stereo not drawn)	60

Tested on: Plasmodium yoelii nigeriensis
Test: Antimalarial activity against multi-drug resistant Plasmodium yoelii nigeriensis infected in swiss mouse model assessed as suppression of parasitemia at 48 mg/kg, po administered for 4 days relative to control
Format: functional
Conditions: time 4 day

Compound	Activity [%]
C=C(c1ccc(OC(C)(C)CO)cc1)C1COC2(OO1)C1CC3CC(C1)CC2C3 (stereo not drawn)	100
C=C(c1ccc(OC(C)(C)CNc2ccc(C(F)(F)F)cc2)cc1)C1COC2(CCCC2)OO1 (stereo not drawn)	100
C=C(c1ccc(OC(C)(C)CNc2cc(Cl)cc(Cl)c2)cc1)C1COC2(CCCC2)OO1 (stereo not drawn)	100
C=C(c1ccc(OC(C)(C)CNc2ccccc2)cc1)C1COC2(OO1)C1CC3CC(C1)CC2C3 (stereo not drawn)	100
C=C(c1ccc(OC(C)(C)CNc2ccc(F)cc2)cc1)C1COC2(OO1)C1CC3CC(C1)CC2C3 (stereo not drawn)	100

Tested on: Plasmodium yoelii nigeriensis
Test: Antimalarial activity against multi-drug resistant Plasmodium yoelii nigeriensis infected in swiss mouse model assessed as suppression of parasitemia at 96 mg/kg, IM administered for 4 days relative to control
Format: functional
Conditions: time 4 day

Compound	Activity [%]
C=C(c1ccc(OC(C)(C)CO)cc1)C1COC2(CCC(Nc3ccc(Br)cc3)CC2)OO1 (stereo not drawn)	100
C=C(c1ccc(OC(C)(C)CO)cc1)C1COC2(OO1)C1CC3CC(C1)CC2C3 (stereo not drawn)	100
C=C(c1ccc(OC(C)(C)CNc2ccc(C)cc2)cc1)C1COC2(CCCCC2)OO1 (stereo not drawn)	99
C=C(c1ccc(OC(C)(C)CNc2ccc(C(F)(F)F)cc2)cc1)C1COC2(CCCC2)OO1 (stereo not drawn)	65
C=C(c1ccc(OC(C)(C)CNc2ccc(Br)cc2)cc1)C1COC2(CCCCC2)OO1 (stereo not drawn)	100
C=C(c1ccc(OC(C)(C)CO)cc1)C1COC2(CCCCC2)OO1 (stereo not drawn)	100
C=C(c1ccc(OC(C)(C)CO)cc1)C1COC2(CCCC2)OO1 (stereo not drawn)	98
C=C(c1ccc(OC(C)(C)CO)cc1)C1COC2(CCC(=O)CC2)OO1 (stereo not drawn)	53

Tested on: Plasmodium yoelii nigeriensis
Test: Antimalarial activity against multi-drug resistant Plasmodium yoelii nigeriensis infected in swiss mouse model assessed as suppression of parasitemia at 48 mg/kg, IM administered for 4 days relative to control
Format: functional
Conditions: time 4 day

Compound	Activity [%]
C=C(c1ccc(OC(C)(C)CO)cc1)C1COC2(CCC(Nc3ccc(Br)cc3)CC2)OO1 (stereo not drawn)	100
C=C(c1ccc(OC(C)(C)CO)cc1)C1COC2(OO1)C1CC3CC(C1)CC2C3 (stereo not drawn)	100
C[C@@H]1CC[C@H]2[C@@H](C)C(=O)O[C@@H]3O[C@@]4(C)CC[C@@H]1[C@]32OO4 [ARTEMISININ]	100

Tested on: Plasmodium yoelii nigeriensis
Test: Antimalarial activity against multi-drug resistant Plasmodium yoelii nigeriensis infected in swiss mouse model assessed as suppression of parasitemia at 24 mg/kg, po administered for 4 days relative to control
Format: functional
Conditions: time 4 day

Compound	Activity [%]
C=C(c1ccc(OC(C)(C)CNc2ccccc2)cc1)C1COC2(OO1)C1CC3CC(C1)CC2C3 (stereo not drawn)	100
C=C(c1ccc(OC(C)(C)CNc2ccc(F)cc2)cc1)C1COC2(OO1)C1CC3CC(C1)CC2C3 (stereo not drawn)	100

Tested on: Plasmodium yoelii nigeriensis
Test: Antimalarial activity against multi-drug resistant Plasmodium yoelii nigeriensis infected in swiss mouse model at 96 mg/kg, po administered for 4 days and measured within 6 to 8 days
Format: functional, organism-based
Conditions: time 6-8 day

Compound	Activity
C=C(c1ccc(OC(C)(C)CO)cc1)C1COC2(CCC(Nc3ccc(Br)cc3)CC2)OO1 (stereo not drawn)	inactive
C=C(c1ccc(OC(C)(C)CO)cc1)C1COC2(OO1)C1CC3CC(C1)CC2C3 (stereo not drawn)	Active
C=C(c1ccc(OC(C)(C)CNc2ccc(C(F)(F)F)cc2)cc1)C1COC2(CCCC2)OO1 (stereo not drawn)	Active
C=C(c1ccc(OC(C)(C)CNc2cc(Cl)cc(Cl)c2)cc1)C1COC2(CCCC2)OO1 (stereo not drawn)	Active
C=C(c1ccc(OC(C)(C)CNc2ccc(Br)cc2)cc1)C1COC2(CCCCC2)OO1 (stereo not drawn)	Active
C[C@@H]1CC[C@H]2[C@@H](C)C(=O)O[C@@H]3O[C@@]4(C)CC[C@@H]1[C@]32OO4 [ARTEMISININ]	inactive
C=C(c1ccc(OC(C)(C)CNc2ccccc2)cc1)C1COC2(OO1)C1CC3CC(C1)CC2C3 (stereo not drawn)	Active
C=C(c1ccc(OC(C)(C)CO)cc1)C1COC2(CCCCC2)OO1 (stereo not drawn)	inactive
C=C(c1ccc(OC(C)(C)CNc2ccc(F)cc2)cc1)C1COC2(OO1)C1CC3CC(C1)CC2C3 (stereo not drawn)	Active
C=C(c1ccc(OC(C)(C)CO)cc1)C1COC2(CCCC2)OO1 (stereo not drawn)	inactive
C=C(c1ccc(OC(C)(C)CO)cc1)C1COC2(CCC(=O)CC2)OO1 (stereo not drawn)	inactive

Tested on: Plasmodium yoelii nigeriensis
Test: Antimalarial activity against multi-drug resistant Plasmodium yoelii nigeriensis infected in swiss mouse model at 96 mg/kg, IM administered for 4 days and measured within 6 to 8 days
Format: functional, organism-based
Conditions: time 6-8 day

Compound	Activity
C=C(c1ccc(OC(C)(C)CO)cc1)C1COC2(CCC(Nc3ccc(Br)cc3)CC2)OO1 (stereo not drawn)	Active
C=C(c1ccc(OC(C)(C)CO)cc1)C1COC2(OO1)C1CC3CC(C1)CC2C3 (stereo not drawn)	Active
C=C(c1ccc(OC(C)(C)CNc2ccc(C(F)(F)F)cc2)cc1)C1COC2(CCCC2)OO1 (stereo not drawn)	inactive
C=C(c1ccc(OC(C)(C)CO)cc1)C1COC2(CCC(=O)CC2)OO1 (stereo not drawn)	inactive

Tested on: Plasmodium yoelii nigeriensis
Test: Antimalarial activity against multi-drug resistant Plasmodium yoelii nigeriensis infected in swiss mouse model at 48 mg/kg, IM administered for 4 days and measured within 6 to 8 days
Format: functional, organism-based
Conditions: time 6-8 day

Compound	Activity
C=C(c1ccc(OC(C)(C)CO)cc1)C1COC2(CCC(Nc3ccc(Br)cc3)CC2)OO1 (stereo not drawn)	Active
C=C(c1ccc(OC(C)(C)CO)cc1)C1COC2(OO1)C1CC3CC(C1)CC2C3 (stereo not drawn)	Active
C[C@@H]1CC[C@H]2[C@@H](C)C(=O)O[C@@H]3O[C@@]4(C)CC[C@@H]1[C@]32OO4 [ARTEMISININ]	Active

Tested on: Plasmodium yoelii nigeriensis
Test: Antimalarial activity against multi-drug resistant Plasmodium yoelii nigeriensis infected in swiss mouse model at 48 mg/kg, po administered for 4 days and measured within 6 to 8 days
Format: functional, organism-based
Conditions: time 6-8 day

Compound	Activity
C=C(c1ccc(OC(C)(C)CNc2ccccc2)cc1)C1COC2(OO1)C1CC3CC(C1)CC2C3 (stereo not drawn)	Active
C=C(c1ccc(OC(C)(C)CNc2ccc(F)cc2)cc1)C1COC2(OO1)C1CC3CC(C1)CC2C3 (stereo not drawn)	Active

Tested on: Plasmodium yoelii nigeriensis
Test: Antimalarial activity against multi-drug resistant Plasmodium yoelii nigeriensis infected in swiss mouse model assessed as animal survival at 96 mg/kg, po administered for 4 days and measured after 28 days
Format: functional
Conditions: time 28 day

Compound	Survival [days]
C=C(c1ccc(OC(C)(C)CNc2ccc(C(F)(F)F)cc2)cc1)C1COC2(CCCC2)OO1 (stereo not drawn)	>28
C=C(c1ccc(OC(C)(C)CNc2cc(Cl)cc(Cl)c2)cc1)C1COC2(CCCC2)OO1 (stereo not drawn)	>28
C=C(c1ccc(OC(C)(C)CNc2ccc(Br)cc2)cc1)C1COC2(CCCCC2)OO1 (stereo not drawn)	>28

Tested on: Plasmodium yoelii nigeriensis
Test: Antimalarial activity against multi-drug resistant Plasmodium yoelii nigeriensis infected in swiss mouse model assessed as animal survival at 96 mg/kg, IM administered for 4 days and measured after 28 days
Format: functional
Conditions: time 28 day

Compound	Survival [days]
C=C(c1ccc(OC(C)(C)CO)cc1)C1COC2(CCC(Nc3ccc(Br)cc3)CC2)OO1 (stereo not drawn)	>28

Tested on: Plasmodium yoelii nigeriensis
Test: Antimalarial activity against multi-drug resistant Plasmodium yoelii nigeriensis infected in swiss mouse model assessed as animal survival at 48 mg/kg, IM administered for 4 days and measured after 28 days
Format: functional
Conditions: time 28 day

Compound	Survival [days]
C=C(c1ccc(OC(C)(C)CO)cc1)C1COC2(CCC(Nc3ccc(Br)cc3)CC2)OO1 (stereo not drawn)	>28

Tested on: Plasmodium yoelii nigeriensis
Test: Antimalarial activity against multi-drug resistant Plasmodium yoelii nigeriensis infected in swiss mouse model assessed as suppression of parasitemia by measuring fold change at 48 mg/kg, po administered for 4 days relative to artemisinin
Format: functional
Conditions: time 4 day

Compound	fold change (FC)
C=C(c1ccc(OC(C)(C)CNc2ccccc2)cc1)C1COC2(OO1)C1CC3CC(C1)CC2C3 (stereo not drawn)	2
C=C(c1ccc(OC(C)(C)CNc2ccc(F)cc2)cc1)C1COC2(OO1)C1CC3CC(C1)CC2C3 (stereo not drawn)	2
